Reference: PMC9653173, “Trotabresib (CC-90010) in combination with adjuvant temozolomide or concomitant temozolomide plus radiotherapy in patients with newly diagnosed glioblastoma” (Neuro-Oncology Advances, 2022)

Tests used:
[1] = test system: glioblastoma PDX models; assay: Tumor growth inhibition in glioblastoma patient-derived xenograft models; type: in vivo; conditions: Supplementary Figure S1
Description: Supplementary Figure 1. Trotabresib-mediated tumor growth inhibition in a glioblastoma patient-derived xenograft with and without TMZ. [picture] ^aTMZ given on days 7–9 and 22–24.

[2] = set-up: method as in PMID 36455228; conditions: recurrent high-grade glioma, trotabresib 30 mg/day on days 1–4 before surgery; cited from earlier work

Compound: Cn1cc(-c2cc(S(C)(=O)=O)ccc2OCC2CC2)c2ccccc2c1=O [Trotabresib]
- Effect on antiproliferative effects of TMZ ([1]; glioblastoma PDX models): enhances the antiproliferative effects of TMZ
- Antitumor activity as a single agent ([1]; glioblastoma models): has antitumor activity in glioblastoma models as a single agent
- Brain tumor tissue:plasma ratio [2]: 0.84
